Measured values as given in PubChem BioAssay (NCI).
Where “and” joins values, the source holds several entries; their conditions need not be identical. Equal values may be shown once.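 1) Cells in 96-well plates. 2) Compound, 48 h, 5 concentrations. 3) Linear interpolation between surrounding doses. 4) Unreached endpoint = highest concentration. At the GI50, growth is halved. TGI: total growth inhibition.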

Experiments:
Assay in all cases: NCI-60 cell line screen, 48 h
COLO 205 colon = system: COLO 205 colon
DU-145 prostate = system: DU-145 prostate
HS 578T breast = system: HS 578T breast
M14 melanoma = system: M14 melanoma
MDA-MB-231 breast = system: MDA-MB-231 breast
NCI-H23 lung = system: NCI-H23 lung
SF-268 CNS = system: SF-268 CNS
SF-539 CNS = system: SF-539 CNS
SK-MEL-28 melanoma = system: SK-MEL-28 melanoma
UO-31 renal = system: UO-31 renal

Row | SMILES | TGI (COLO 205 colon) | GI50 (DU-145 prostate) | TGI (DU-145 prostate) | GI50 (HS 578T breast) | TGI (HS 578T breast) | GI50 (M14 melanoma) | TGI (M14 melanoma) | GI50 (MDA-MB-231 breast) | TGI (MDA-MB-231 breast) | GI50 (NCI-H23 lung) | GI50 (SF-268 CNS) | TGI (SF-268 CNS) | GI50 (SF-539 CNS) | TGI (SF-539 CNS) | GI50 (SK-MEL-28 melanoma) | TGI (SK-MEL-28 melanoma) | GI50 (UO-31 renal) | TGI (UO-31 renal) | GI50 (COLO 205 colon) | TGI (NCI-H23 lung)
1 | CNCCNc1c2c(c(NCCNC)c3c(CN(C)C)c[nH]c13)C(=O)c1ccccc1C2=O | > 34.5 µM | 1.53 µM | 5.93 µM | 1.7 µM | 7.92 µM | 5.58 µM | 15.5 µM | 0.486 µM | 8.31 µM | 2.22 µM | 1.3 µM | 9.21 µM | 4.46 µM | 17.1 µM | 9.59 µM | 26.4 µM | 3 µM | 14.4 µM | – | –
2 | Cc1ccc(Cl)cc1Nc1nc(C(F)(F)F)ccc1C(=O)N1CCN(c2ccc(F)cc2)CC1 | 30.2 µM | 17.4 µM | 36.6 µM | 4.31 µM | 22.3 µM | 15 µM | 31.3 µM | 10.3 µM | 24.4 µM | 10.2 µM | 15.8 µM | 36.5 µM | 14.8 µM | 30.2 µM | 15.6 µM | 29.3 µM | 4.49 µM | 22.5 µM | 15.8 µM | 24.2 µM
3 | O=c1n(CC2CO2)c(=O)n(CC2CO2)c(=O)n1CC1CO1 (stereo not drawn) | 78.4 µM and 52.2 µM and 25.5 µM | 11 µM and 3.22 µM | 66.2 µM and 127 µM and 37.3 µM | 21.6 µM | 188 µM and > 100 µM | 13.2 µM and 6.77 µM | 57.3 µM and > 100 µM | 35.1 µM and 52.4 µM | 84.8 µM and > 100 µM | 14.2 µM and 7.3 µM | 11.7 µM and 3.66 µM | 241 µM and > 100 µM | 2.92 µM | 41.6 µM and 24.7 µM | 22.7 µM | 139 µM and > 100 µM | 21.1 µM and 6.42 µM | 88.6 µM and 118 µM and > 100 µM | 25 µM and 11.1 µM | 90.9 µM and > 100 µM
4 | CCN1CCN(c2ccc(Nc3cc(N(C)C(=O)Nc4c(Cl)c(OC)cc(OC)c4Cl)ncn3)cc2)CC1 | 3.47 µM | 2.33 µM | 9.75 µM | 1.34 µM | 9.2 µM | 1.45 µM | 3.1 µM | 1.99 µM | 4.15 µM | 4.35 µM | 2.41 µM | 28 µM | 3.11 µM | 7.99 µM | 1.87 µM | 3.46 µM | 1.35 µM | 10 µM | 1.93 µM | 44.6 µM
5 | C[C@H]1c2cccc(O)c2C(O)=C2C(=O)[C@]3(O)C(O)=C(C(N)=O)C(=O)[C@@H](N(C)C)[C@@H]3[C@@H](O)[C@@H]21 | 3.63 µM | 3.61 µM | 12.5 µM | 3.42 µM | 27 µM | 3.28 µM | 12.6 µM | 3.39 µM | 13.5 µM | 2.99 µM | 3.33 µM | 12.1 µM | 3.88 µM | 14.8 µM | 4.14 µM | 16.4 µM | 3.15 µM | 15.1 µM | 1.88 µM | 11.9 µM
6 | CCC[CH2][Sn]([CH2]CCC)([CH2]CCC)[O]C(=O)CC | 0.372 µM | 0.136 µM | 0.271 µM | 0.18 µM | 0.708 µM | 0.167 µM | 0.343 µM | 0.144 µM | 0.343 µM | 0.149 µM | 0.146 µM | 0.345 µM | 0.185 µM | 0.38 µM | 0.161 µM | 0.318 µM | 0.15 µM | 0.314 µM | 0.178 µM | 0.615 µM
7 | CC[C@]12C=CCN3CC[C@@]4(c5ccc(OC)cc5N(C)[C@H]4[C@@](O)(C(=O)OC)[C@@H]1OC(=O)CCC[P+](c1ccccc1)(c1ccccc1)c1ccccc1)[C@@H]32 | 0.611 µM and 0.454 µM | 1.09 µM and 0.768 µM | 6.47 µM and 11.8 µM | 1.21 µM and 1.15 µM | 6.71 µM and 5.07 µM | 0.762 µM and 1.05 µM | 2.93 µM and 2.85 µM | 0.467 µM and 0.525 µM | 1.85 µM and 2.25 µM | 1.11 µM and 0.984 µM | 0.933 µM and 0.455 µM | 6.84 µM and 2.65 µM | 0.648 µM and 0.769 µM | 5.78 µM and 4.78 µM | 0.274 µM and 0.442 µM | 1.06 µM and 1.67 µM | 8.57 µM and 13.4 µM | 26.2 µM and 26.9 µM | 0.161 µM and 0.208 µM | 5.5 µM and 7.77 µM
8 | Cc1c2cccnc2c(C)c2c1c1cc(CO)ccc1n2C | 6.11 µM | 3.09 µM | 11.9 µM | 3.38 µM | 34.5 µM | 2.49 µM | 10.4 µM | 2.61 µM | 13.2 µM | 2.31 µM | 2.29 µM | 15.1 µM | 2.49 µM | 11.7 µM | 3.01 µM | 10.9 µM | 1.41 µM | 10.5 µM | 1.51 µM | 16 µM
9 | COc1cc(Nc2cn[nH]c2-c2ccc(Cl)cc2)cc(OC)c1OC | 21.9 µM | 8.73 µM | 42 µM | 3.88 µM | 63.1 µM | 2.5 µM | 9.41 µM | 6.79 µM | > 90.3 µM | 8.33 µM | 6.76 µM | > 70.5 µM | 4.48 µM | 24.7 µM | 6.45 µM | 56.7 µM | 4.09 µM | 28.8 µM | 4.39 µM | > 60.8 µM
10 | COCCOc1cc(F)c2c(Nc3ccc(NC(=O)Cn4cc(C(C)C)nn4)cc3)ncnc2c1 | > 100 µM | > 100 µM | > 100 µM | 16.5 µM | > 100 µM | > 100 µM | > 100 µM | 41.6 µM | > 100 µM | > 100 µM | 37.5 µM | > 100 µM | 6.41 µM | > 100 µM | > 100 µM | > 100 µM | > 100 µM | > 100 µM | > 100 µM | > 100 µM
11 | O=S(=O)([O-])c1ccc2c(c1)-c1nc-2nc2[n-]c(nc3nc(nc4[n-]c(n1)c1ccc(S(=O)(=O)[O-])cc41)-c1cc(S(=O)(=O)[O-])ccc1-3)c1ccc(S(=O)(=O)[O-])cc21.[Cu+2].[Na+] | > 62 µM | > 100 µM | > 100 µM | > 100 µM | > 100 µM | > 37.4 µM | > 100 µM | > 100 µM | > 100 µM | 98.4 µM | > 69.8 µM | > 100 µM | > 100 µM | > 100 µM | > 100 µM | > 100 µM | > 39.6 µM | > 93.9 µM | 6.96 µM | > 100 µM
12 | Cn1c(=O)c2c(nc(Nc3cc(=O)[nH]c(=O)[nH]3)n2Cc2ccccc2)n(C)c1=O | > 100 µM | > 100 µM | > 100 µM | > 100 µM | > 100 µM | > 100 µM | > 100 µM | > 100 µM | > 100 µM | > 100 µM | > 100 µM | > 100 µM | > 100 µM | > 100 µM | > 100 µM | > 100 µM | 77 µM | > 100 µM | > 100 µM | > 100 µM
